# Results as given in patent US6300519A, “Antivirally active heterocyclic azahexane derivatives” (Novartis Finance Corporation, priority 1996, dated 2001).
# How the values were obtained:
# [1] = tested on: 46I/47V/50V (VX478) strain; experiment: Transient DNA transfection assay, strain 46I/47V/50V (VX478); type: cell-based, HIV-1; settings: 1 nM
# From the text: (§1) By way of PCR-supported mutagenesis and cloning, HIV-1 protease mutants are generated that are based on the infectious clone pNL4-3 (freely available via the "NIH AIDS reference and reagent program", the original reference is A. Adachi et al. J. Virol (1986) 59, 284-91--but it can, of course, be any other HIV clone, or even clinical material, provided that comparability is ensured). […] The cloned fragments are, for example, only 500 base pairs in length, all of the remainder being unchanged. By using mutations in always the same clone, direct comparability is ensured, which would rot be the case in a direct comparison of clinical samples or of different HIV clones.
# (§2) That system is used as a transient DNA transfection system for tests:
# (§3) Instead of the strains mentioned, there may be used any human T4-positive cells, such as the HeLa T4 cells, deposited under that name by Richard Axel and Paul Maddon in "NIH AIDS reference and reagent program" and obtainable via that source.
# [2] = tested on: resistant variant (45I,76F strain)
# From the text: as §1, §2, §3
smiles,measurement,setting,value
"COC(=O)N[C@H](C(=O)N[C@@H](Cc1ccccc1)[C@@H](O)CN(Cc1ccc(-c2ccccn2)cc1)NC(=O)[C@@H](NC(=O)OC)C(C)(C)C)C(C)(C)C [Example 46, 1-[4-(Pyridin-2-yl)-phenyl]-4(S)-hydroxy-5(S)-2,5-bis[N-(N-methoxycarbonyl-(L)-tert-leucyl)amino]-6-phenyl-2-azahexane]","activity against strain 46I/47V/50V (VX478) compared with saquinavir, ritonavir and indinavir",[1],"more potent (not quantified) than that of saquinavir, ritonavir and indinavir"
same,"activity against a resistant variant (45I,76F strain) compared with saquinavir, indinavir, ritonavir",[2],"comparable with saquinavir and better than that of indinavir (Merck & Co., Inc., see below) or ritonavir"
